According to patent US20230414637A1 (priority 2020, published 2023):
≈ marks a conversion by molar mass, not a printed value. Where two headings read alike, the source gives them in different places.

What was measured:
[1] = Supersaturated solution precipitation of niclosamide: amount in solution; conditions: pH 9.3, equilibrated
[2] = test system: oxidative phosphorylation; conditions: cited from earlier work
[3] = cited from earlier work
[4] = test system: SARS-CoV-2 in Calu-3 cells; conditions: Ko et al [34]; cited from earlier work
[5] = Dissolution of niclosamide solvates (water precipitate, acetone and ethanol recrystallized) at pH 9.3; conditions: for solubility (equilibrium supernatant concentration several days after dissolution): pH 9.3; for initial dissolution rate, intrinsic parameter: pH 9.3 buffer, 3.5 mgs in 10 mls
Description: To start to evaluate the various expected polymorphs and to try and obtain a morphology that was perhaps like the purchased materials (of unknown processing), three samples were made i.e., the “water-hydrate” precipitated from ethanol into excess water and two that were recrystallized from acetone and from ethanol.
It was filtered on a sintered glass filter, washed three times with deionized water, and dried. The material was ground by mortar and pestle ready for the dissolution test and viewed microscopically to evaluate its crystal morphology.
Each material was also viewed microscopically to evaluate their crystal morphologies.
Dissolution of the solvates. […] 2 uL aliquots were taken directly from the stirred solution in the 20 mL scintillation vial at appropriate time intervals and absorbance at 333 nm was measured by nanodrop spectrophotometer.

[6] = type: physicochemical
Description: pH=pKa+Log10[Nic−ve]/[NicOH] Eqn 1
pHp=pKa+log(S−So)/So Eqn 4
So=the molar intrinsic solubility of the undissociated acid (NicOH), and S=the molar concentration of the salt form initially added.

[7] = for supernatant concentration reached at 3 hrs: more efficient stirring, pH 9.5, nominal 1 mM
[8] = same pH as Yomesan extraction (pH 9.3)
[9] = Equilibrium dissolution of AK Sci niclosamide versus pH (supernatant concentration by UV/Vis at 333 nm); conditions: for Average [Nic] (uM) UV/Vis, 333 nm), supernatant concentration: 20° C.
[10] = pH 7.09
[11] = test system: SARS-CoV-2 in Vero 6 cells; conditions: Vero 6 cells, Jeon et al [14]; read-out: IC50 for viral replication; cited from earlier work
[12] = Literature aqueous solubility of niclosamide; conditions: van Tonder et al [17], converted
[13] = test system: GR; conditions: read-out: relative trans-activation potency (EC50); cited from earlier work
[14] = Dissolution and conversion of Sigma niclosamide (3 hrs and overnight stirring)

Structure (SMILES): O=C(Nc1ccc([N+](=O)[O-])cc1Cl)c1cc(Cl)ccc1O [precipitated material]
- solubility of material precipitated in situ from supersaturated solution [1]: 180.9 µM

Structure (SMILES): FC(F)(F)c1nc2c(Cl)c(Cl)c(Cl)c(Cl)c2[nH]1 [TTFB]
- concentration of uncoupling activity ([2]; Terada [39]): 100 nM
- pKa ([3]; in 50% ethanol): 5.5

Structure (SMILES): CC(C)(C)c1cc(Cl)cc(C(=O)Nc2ccc([N+](=O)[O-])cc2Cl)c1O [S-13]
- concentration of uncoupling activity ([2]; Terada [39]): 30 nM
- pKa ([3]; Terada [39]): 6.57

Structure (SMILES): N=C(N)c1ccc2cc(OC(=O)c3ccc(N=C(N)N)cc3)ccc2c1 [Nafamostat]
- antiviral activity [4]: few nanomolar

Structure (SMILES): O=C(Nc1ccc([N+](=O)[O-])cc1Cl)c1cc(Cl)ccc1O [AK Sci Niclosamide]
- solubility (equilibrium supernatant concentration several days after dissolution) [5]: ~383 µM (≈ 125 µg/mL)
- pKa fitted from pHp curve to supernatant concentration data ([6]; So 2.53 uM): 7.12
- supernatant concentration reached at 3 hrs ([7]; listed as AK Sci niclosamide): 564 µM
- fitted logarithmic dissolution rate, pre-ln factor ([7]; pH 8.62, nominal 1 mM, first hour): 22
- fitted logarithmic dissolution rate, pre-ln factor ([7]; pH 8.72, nominal 1 mM): 24
- fitted logarithmic dissolution rate, pre-ln factor ([7]; pH 9.06, nominal 1 mM): 38
- initial rate of dissolution / extraction over first three minutes ([7]; pH 9.3 buffer): 51.7 µM/min
- intrinsic dissolution rate ([7]; pH 9.3 buffer, converted from uM/min): 0.28 µg/s
- fitted logarithmic dissolution rate, pre-ln factor ([7]; pH 9.36, nominal 1 mM): 71
- clear supernatant solution concentration [8]: 520 µM
- Average [Nic] (uM) UV/Vis, 333 nm), supernatant concentration ([9]; measured pH 3.64, stirred to equilibrium (48 hrs)): 2.53 µM
- Average [Nic] (uM) UV/Vis, 333 nm), supernatant concentration ([9]; measured pH 7.05, 48 hrs): 8.68 µM
- Average [Nic] (uM) UV/Vis, 333 nm), supernatant concentration ([9]; measured pH 7.64, 48 hrs): 16.75 µM
- Average [Nic] (uM) UV/Vis, 333 nm), supernatant concentration ([9]; measured pH 8.06, 48 hrs): 25.83 µM
- Average [Nic] (uM) UV/Vis, 333 nm), supernatant concentration ([9]; measured pH 8.26, 48 hrs): 47.26 µM
- Average [Nic] (uM) UV/Vis, 333 nm), supernatant concentration ([9]; measured pH 8.53, 48 hrs): 83.31 µM
- Average [Nic] (uM) UV/Vis, 333 nm), supernatant concentration ([9]; measured pH 8.75, 48 hrs): 137.29 µM
- Average [Nic] (uM) UV/Vis, 333 nm), supernatant concentration ([9]; measured pH 9.04, 48 hrs): 215.66 µM
- Average [Nic] (uM) UV/Vis, 333 nm), supernatant concentration ([9]; measured pH 9.22, 48 hrs): 344.32 µM
- Average [Nic] (uM) UV/Vis, 333 nm), supernatant concentration ([9]; measured pH 9.32, 48 hrs): 382.68 µM
- Average [Nic] (uM) UV/Vis, 333 nm), supernatant concentration ([9]; measured pH 9.4, 48 hrs): 466.14 µM
- Average [Nic] (uM) UV/Vis, 333 nm), supernatant concentration ([9]; measured pH 9.63, 48 hrs): 703.26 µM
- limiting (intrinsic) solubility So of the protonated acid ([9]; pH 3.66): 2.53 µM
- polymorph stability of excess powder in stirred buffer ([9]; stirred 24 hrs and longer, days, in presence of original powder): did not readily convert to the less soluble hydrates

Structure (SMILES): O.O=C(Nc1ccc([N+](=O)[O-])cc1Cl)c1cc(Cl)ccc1O [presumed monohydrate]
- expected concentration in solution from pHp model ([6]; pH 6): 1 uM
- solubility [10]: 1.24 µM

Structure (SMILES): Cc1cccc(C)c1OCC(=O)N[C@@H](Cc1ccccc1)[C@@H](O)C[C@H](Cc1ccccc1)NC(=O)[C@H](C(C)C)N1CCCNC1=O [lopinavir]
- IC50 [11]: 7.28 µM

Structure (SMILES): O=C(Nc1ccc([N+](=O)[O-])cc1Cl)c1cc(Cl)ccc1O [Nic−ve]
- solubility limit of the negatively charged salt ([9]; pH 9.5): ~640 µM
- solubility limit of the deprotonated salt ([9]; pH 9.63): at least 703.6 uM
- solubility limit of the negatively charged salt ([9]; pH not stated at the place): ≥ 670 µM

Structure (SMILES): Oc1c(Cl)c(Cl)c(Cl)c(Cl)c1Cl [PCP]
- concentration of uncoupling activity ([2]; Terada [39]): 1000 nM
- pKa ([3]; Terada [39]): 4.80

Structure (SMILES): O=C(O)c1ccccc1Nc1cccc(C(F)(F)F)c1 [flufenamic acid]
- concentration of uncoupling activity ([2]; Terada [39]): 50000 nM
- pKa ([3]; Terada [39]): 3.85

Structure (SMILES): O=C(Nc1ccc([N+](=O)[O-])cc1Cl)c1cc(Cl)ccc1O [NicAcetone-recrys]
- solubility (equilibrium supernatant concentration several days after dissolution) ([5]; listed as acetone recrystallized material): 79.4 µM (≈ 26 µg/mL)
- initial dissolution rate, intrinsic parameter [5]: 0.0369 µM/mg

Structure (SMILES): N#CC(C#N)=NNc1ccc(OC(F)(F)F)cc1 [FCCP]
- concentration of uncoupling activity [2]: 100 nM

Structure (SMILES): O=C(Nc1ccc([N+](=O)[O-])cc1Cl)c1cc(Cl)ccc1O [Anhydrate]
- solubility of crystal forms in distilled water [12]: 40.4 µM

Structure (SMILES): O.O=C(Nc1ccc([N+](=O)[O-])cc1Cl)c1cc(Cl)ccc1O [Monohydrates HB]
- solubility of crystal forms in distilled water [12]: 1.87 µM

Structure (SMILES): O=C(Nc1ccc([N+](=O)[O-])cc1Cl)c1cc(Cl)ccc1O [NicEtOH-recrys]
- initial dissolution rate, intrinsic parameter [5]: 0.0439 µM/mg

Structure (SMILES): CCN(CC)CCCC(C)Nc1ccnc2cc(Cl)ccc12 (centres unmarked) [chloroquine]
- IC50 [11]: 9.12 µM

Structure (SMILES): O=C(Nc1ccc([N+](=O)[O-])cc1Cl)c1cc(Cl)ccc1O [NicH20ppt]
- solubility (equilibrium supernatant concentration several days after dissolution) ([5]; listed as water solvate): 132.6 µM (≈ 43.4 µg/mL)
- initial dissolution rate, intrinsic parameter [5]: 0.104 µM/mg

Structure (SMILES): CCC(=O)O[C@]1(C(=O)SCF)[C@H](C)C[C@H]2[C@@H]3C[C@H](F)C4=CC(=O)C=C[C@]4(C)[C@@]3(F)[C@@H](O)C[C@@]21C [fluticasone propionate]
- EC50 [13]: 0.32 ± 0.04 nM

Structure (SMILES): O.O=C(Nc1ccc([N+](=O)[O-])cc1Cl)c1cc(Cl)ccc1O [Monohydrates HA]
- solubility of crystal forms in distilled water [12]: 2.9 µM

Structure (SMILES): CC(C)(C)c1cc(C=C(C#N)C#N)cc(C(C)(C)C)c1O [SF 6847, 3,5-Di-tert-butyl-4-hydroxy-benzylidene-Malononitrile]
- concentration of uncoupling activity ([2]; Terada [39]): 10 nM
- pKa ([3]; Terada [39]): 6.83

Structure (SMILES): O=C(Nc1ccc([N+](=O)[O-])cc1Cl)c1cc(Cl)ccc1O [Sigma niclosamide]
- supernatant concentration reached at 3 hrs [7]: 680 µM
- fitted logarithmic dissolution rate, factor of ln(x) ([7]; pH 9.44 buffer, more optimized (standardized) stirring): 116
- reduction of amount of niclosamide in supernatant solution after overnight equilibration ([14]; over the whole pH range): ~3.5 ×
- solubility after overnight equilibration ([14]; pH 9.3): 103 µM (≈ 33.7 µg/mL)
- polymorph stability of excess powder in stirred buffer ([14]; several hours after the first 3 hrs): converted to a much lower solubility polymorph
- loss of material concentration from 3 hrs to 24 hrs ([14]; ~pH 9.5): 434 µM
- supernatant niclosamide concentration at 3 hrs ([14]; ~pH 9.5): 681 µM
- supernatant niclosamide concentration after 24 hrs (overnight stirring) ([14]; ~pH 9.5, filtered 0.22 um): 247 µM
